Test: xn = mol fraction of the nth substance listed
Settings: 100 kPa, Liquid; for viscosity: Concentric cylinders viscometry; for mass density: Vibrating tube method

CCCC(C)O (centres undefined) [pentan-2-ol] + CC(=O)CC(C)C
Settings | mass density [kg/m3] | viscosity [mPa·s]
293.15 K, x2 = 0 | 809.3 | 3.974
293.15 K, x2 = 0.0812 | 807.6 | 2.699
293.15 K, x2 = 0.1588 | 806.2 | 2.09
293.15 K, x2 = 0.2391 | 804.9 | 1.709
293.15 K, x2 = 0.3508 | 803.3 | 1.366
293.15 K, x2 = 0.4441 | 802.4 | 1.14
293.15 K, x2 = 0.561 | 801.4 | 0.924
293.15 K, x2 = 0.6484 | 800.9 | 0.818
293.15 K, x2 = 0.741 | 800.7 | 0.74
293.15 K, x2 = 0.8528 | 800.5 | 0.671
293.15 K, x2 = 0.9406 | 800.7 | 0.63
298.15 K, x2 = 0 | 805.3 | 3.277
298.15 K, x2 = 0.0812 | 803.5 | 2.326
298.15 K, x2 = 0.1588 | 801.9 | 1.83
298.15 K, x2 = 0.2391 | 800.6 | 1.496
298.15 K, x2 = 0.3508 | 799 | 1.202
298.15 K, x2 = 0.4441 | 797.9 | 1.018
298.15 K, x2 = 0.561 | 796.9 | 0.85
298.15 K, x2 = 0.6484 | 796.4 | 0.767
298.15 K, x2 = 0.741 | 796 | 0.69
298.15 K, x2 = 0.8528 | 795.9 | 0.63
298.15 K, x2 = 0.9406 | 795.9 | 0.59
303.15 K, x2 = 0 | 801.2 | 2.717
303.15 K, x2 = 0.0812 | 799.3 | 2.029
303.15 K, x2 = 0.1588 | 797.7 | 1.619
303.15 K, x2 = 0.2391 | 796.3 | 1.333
303.15 K, x2 = 0.3508 | 794.6 | 1.078
303.15 K, x2 = 0.4441 | 793.5 | 0.928
303.15 K, x2 = 0.561 | 792.4 | 0.787
303.15 K, x2 = 0.6484 | 791.9 | 0.711
303.15 K, x2 = 0.741 | 791.5 | 0.641
303.15 K, x2 = 0.8528 | 791.3 | 0.589
303.15 K, x2 = 0.9406 | 791.4 | 0.553
308.15 K, x2 = 0 | 797 | 2.282
308.15 K, x2 = 0.0812 | 795 | 1.757
308.15 K, x2 = 0.1588 | 793.4 | 1.429
308.15 K, x2 = 0.2391 | 791.9 | 1.185
308.15 K, x2 = 0.3508 | 790.1 | 0.966
308.15 K, x2 = 0.4441 | 788.9 | 0.842
308.15 K, x2 = 0.561 | 787.8 | 0.728
308.15 K, x2 = 0.6484 | 787.2 | 0.663
308.15 K, x2 = 0.741 | 786.8 | 0.6
308.15 K, x2 = 0.8528 | 786.6 | 0.554
308.15 K, x2 = 0.9406 | 786.7 | 0.526
313.15 K, x2 = 0 | 792.7 | 1.931
313.15 K, x2 = 0.0812 | 790.6 | 1.52
313.15 K, x2 = 0.1588 | 788.9 | 1.249
313.15 K, x2 = 0.2391 | 787.4 | 1.051
313.15 K, x2 = 0.3508 | 785.6 | 0.876
313.15 K, x2 = 0.4441 | 784.3 | 0.773
313.15 K, x2 = 0.561 | 783.2 | 0.675
313.15 K, x2 = 0.6484 | 782.6 | 0.617
313.15 K, x2 = 0.741 | 782.2 | 0.561
313.15 K, x2 = 0.8528 | 782 | 0.522
313.15 K, x2 = 0.9406 | 782.1 | 0.497
318.15 K, x2 = 0 | 788.4 | 1.647
318.15 K, x2 = 0.0812 | 786.3 | 1.329
318.15 K, x2 = 0.1588 | 784.5 | 1.116
318.15 K, x2 = 0.2391 | 782.9 | 0.949
318.15 K, x2 = 0.3508 | 781 | 0.8
318.15 K, x2 = 0.4441 | 779.8 | 0.712
318.15 K, x2 = 0.561 | 778.6 | 0.627
318.15 K, x2 = 0.6484 | 778 | 0.577
318.15 K, x2 = 0.741 | 777.6 | 0.53
318.15 K, x2 = 0.8528 | 777.3 | 0.492
318.15 K, x2 = 0.9406 | 777.4 | 0.465
323.15 K, x2 = 0 | 784 | 1.419
323.15 K, x2 = 0.0812 | 781.9 | 1.168
323.15 K, x2 = 0.1588 | 780 | 0.995
323.15 K, x2 = 0.2391 | 778.4 | 0.855
323.15 K, x2 = 0.3508 | 776.5 | 0.729
323.15 K, x2 = 0.4441 | 775.2 | 0.654
323.15 K, x2 = 0.561 | 774 | 0.583
323.15 K, x2 = 0.6484 | 773.4 | 0.543
323.15 K, x2 = 0.741 | 772.9 | 0.505
323.15 K, x2 = 0.8528 | 772.7 | 0.468
323.15 K, x2 = 0.9406 | 772.8 | 0.445

— the NIST ThermoML archive (doi:10.1016/j.tca.2014.07.022)
